Laboratory results from the NIST ThermoML archive (doi:10.1007/s10765-014-1828-5).

Details: 101.33 kPa, Liquid, Oscillating crucible method

[Ba+2].[F-].[F-] [barium difluoride]
Details | viscosity [mPa·s]
1620.2 K | 3.56
1642.3 K | 3.46
1657.3 K | 3.309
1682.7 K | 3.165
1697.5 K | 2.995
1722.7 K | 2.899
1723.2 K | 2.856
1738.8 K | 2.766
1763.4 K | 2.665
1779.4 K | 2.57
1802.5 K | 2.461
1819.5 K | 2.368
1842.3 K | 2.3
1860.1 K | 2.237
1880.4 K | 2.172

[Ca+2].[F-].[F-] [calcium fluoride]
Details | viscosity [mPa·s]
1703.3 K | 2.932
1703.6 K | 2.878
1713.5 K | 2.82
1722.7 K | 2.77
1732.2 K | 2.735
1742.2 K | 2.657
1751.6 K | 2.623
1760.6 K | 2.562
1761.2 K | 2.586
1763.4 K | 2.571
1770.5 K | 2.542
1780.9 K | 2.476
1790.5 K | 2.432
1800.8 K | 2.408
1807.3 K | 2.371
1820.5 K | 2.34
1832.8 K | 2.265
1839.9 K | 2.268
1847.7 K | 2.223
1858.7 K | 2.185
1868.1 K | 2.149

[F-].[F-].[Mg+2] [magnesium difluoride]
Details | viscosity [mPa·s]
1514.7 K | 2.416
1534.7 K | 2.25
1554.7 K | 2.257
1574.1 K | 2.09
1613.7 K | 2.081
1633.2 K | 2.036
1653.4 K | 1.98
1673.9 K | 1.895
1690.6 K | 1.784
1716.7 K | 1.763
1731 K | 1.758
1751 K | 1.68
1773 K | 1.632
1792.8 K | 1.588
1814.2 K | 1.602
1831.8 K | 1.552
1853.2 K | 1.448

[F-].[F-].[Sr+2] [strontium fluoride]
Details | viscosity [mPa·s]
1743.4 K | 3.023
1749.8 K | 2.953
1750.4 K | 2.972
1762.4 K | 2.915
1769 K | 2.866
1780.9 K | 2.804
1788.6 K | 2.729
1796.9 K | 2.698
1810.3 K | 2.628
1817.9 K | 2.584
1826.5 K | 2.561
1833.2 K | 2.512
1846.4 K | 2.449
1852.2 K | 2.401
1854.3 K | 2.405
1864.6 K | 2.374
